In patent US4086221A, “Polypeptides and process for producing the same” (Toyo Jozo Kabushiki Kaisha, priority 1975, dated 1978):
Where a SMILES comes first, the peptide text is derived from it. Bridges are numbered along the chain shown (N, C = ends). [ ]: non-standard residue; d: D form. Asu = N[C@@H](CCCCCC(=O)O)C(=O)O

Tested on: Male rats
Assay: Assay method for serum calcium reducing activity (potency against Research Standard B)
Format: in vivo, rat
Settings: intravenous injection 0.2 ml, serum calcium 1 hour after injection, versus Research Standard B
Protocol: The assay method for serum calcium reducing activity, the carrier and developing system for thin layer chromatography and conditions for amino acid analysis are as follows:
Sample is diluted adequately with 0.1 N sodium acetate - 0.1% albumin solution. Male rats are subjected individually to intravenous injection with 0.2 ml. of the respective diluted solutions. After 1 hour, all the rats are killed to obtain their respective blood, and serum calcium value of each blood sample is determined by atomic absorption spectrophotomery. On the other hand, Research Standard B, which is an extract obtained from the thyroid gland of the hog, is diluted so as to give dilutions of 2.5, 5, 10 and 20 MRC mU/0.2 ml. respectively. Male rats are subjected to intravenous injection with 0.2 ml. of the respective diluted solutions. Following the same procedure as above, the serum calcium value of the rats is determined one hour after injection. From the potency of the corresponding Research Standard, the potency of the calcitonin in the sample is determined.

With `CC(C)C[C@H](NC(=O)[C@H](CCCCN)NC(=O)CNC(=O)[C@H](CC(C)C)NC(=O)[C@@H](NC(=O)[C@@H]1CCCCCC(=O)N[C@@H](CO)C(=O)N[C@@H](CC(N)=O)C(=O)N[C@@H](CC(C)C)C(=O)N[C@@H](CO)C(=O)N[C@@H]([C@@H](C)O)C(=O)N1)C(C)C)C(=O)N[C@@H](CO)C(=O)N[C@@H](CCC(N)=O)C(=O)N[C@@H](CCC(=O)O)C(=O)N[C@@H](CC(C)C)C(=O)N[C@@H](Cc1c[nH]cn1)C(=O)N[C@@H](CCCCN)C(=O)N[C@@H](CC(C)C)C(=O)N[C@@H](CCC(N)=O)C(=O)N[C@H](C(=O)N[C@@H](Cc1ccc(O)cc1)C(=O)N1CCC[C@H]1C(=O)N[C@@H](CCCNC(=N)N)C(=O)N[C@H](C(=O)N[C@@H](CC(=O)O)C(=O)N[C@H](C(=O)NCC(=O)N[C@@H](C)C(=O)NCC(=O)N[C@H](C(=O)N1CCC[C@H]1C(N)=O)[C@@H](C)O)C(C)C)[C@@H](C)O)[C@@H](C)O` [Example 1] (SNLST[Asu]VLGKLSQELHKLQTYPRTDVGAGTP-NH2; lactam N-6) the “potency of the purified product (serum calcium reducing activity)” value was 3450 MRC U/mg.
